Tested on: ISC-enriched organoids
Assay: Lysozyme secretion assay, 3-D organoids in ENR, normalized to ATP
Assay type: cell-based, murine
Settings: 6 hit compounds, 6 days ENR, 10 μM Cch 3 h
Method: Lysozyme assay (3D culture). ISC-enriched organoids cultured in 3D Matrigel with ENRCV media were passaged to 48-well plate in 3D Matrigel with ENRCV. At day zero, media were replaced to ENR or ENRCD with or without indicated compounds, and media were replaced every other day. At day six, cells were washed twice with basal media and treated with carbamylcholine chloride (Sigma, C4382) for 3 hours. Media were collected and lysozyme activity was measured by EnzChek Lysozyme Assay Kit (ThermoFisher, E22013).
Lysozyme secretion assay. ISC-enriched organoids in 3D Matrigel culture were passaged to a 48- or 96-well plate and cultured with ENR or ENR+CD media containing DMSO or each drug for 6 days. DMSO- or drug-containing media were changed every other day. […] The fluorescence was measured using excitation/emission of 485/530 nm. […] The solution was replaced to a 96-well white microplate, and luminescent signals were measured by a microplate reader (infinite M200, Tecan). […] For both assays, a polynomial cubic curve was fitted to a set of standard data, and each sample value was calculated on the Microsoft Excel.
Lysozyme secretion assay. […] The fluorescence was measured using excitation/emission of 485/530 nm. […] The solution was replaced to a 96-well white microplate, and luminescent signals were measured by a microplate reader (infinite M200, Tecan). […]

O=C(/C=C\n1cnc(-c2cc(C(F)(F)F)cc(C(F)(F)F)c2)n1)NNc1cnccn1 [KPT-330]
Paneth cell-specific activity (LYZ secretion) in conventional ENR culture: enhancing Paneth cell-specific activity

Reference: US20230398130A1, “METHODS AND COMPOSITIONS FOR DIFFERENTIATING STEM CELLS” (Massachusetts Institute of Technology, priority 2020, published 2023)
